Laboratory results: patent publication US9464076B2, “Benzothiophene derivative” (Daiichi Sankyo Company, Limited, priority 2013, dated 2016)
Structures can show the parent of a compound that is named as a salt.

Molecular target: PDE10A (Homo sapiens (Human), UniProt Q9Y233)
Test: Measurement of PDE10A inhibitory activity-2 (PDE10A fraction prepared from MOLT-4 cells)
Format: biochemical
Conditions: PDE10A fraction from MOLT-4 cells (peak around 250 mM NaCl)
Procedure: A human acute lymphoblastic lymphoma T cell line MOLT-4 (which can be purchased under ATCC No. CRL-1582 from ATCC) was cultured in an RPMI1640 medium containing 10% fetal bovine serum to obtain 5×10^8 MOLT-4 cells. The cells were recovered by centrifugation and suspended in 10 ml of buffer solution A (25 mM Tris-HCl, 5 mM 2-mercaptoethanol, 2 mM benzamidine, 2 mM EDTA, and 0.1 mM 4-(2-aminoethyl)benzenesulfonyl hydrochloride, pH 7.5). The cells were homogenized using a Polytron homogenizer and centrifuged (4° C., 25,000 g, 10 minutes). Then, the supernatant was further ultracentrifuged (4° C., 100,000 g, 60 minutes). The obtained supernatant was filtered through a 0.2 μm filter to obtain a soluble fraction.
HiTrap Q HP column (5 ml×2, GE Healthcare Japan Corp.) equilibrated with buffer solution A was charged with the obtained soluble fraction. Phosphodiesterase was eluted with 300 ml of buffer solution A containing a linear gradient solution of 0 to 0.8 M NaCl to recover sixty 5-ml fractions. Each fraction was tested for cAMP-metabolizing phosphodiesterase activity.
On the other hand, total RNA was prepared from Jurkat cells, one type of human T cell, and similarly subjected to RT-PCR. […] Eur J Biochem. 1999, 266 (3), 1118-2 has reported that PDE10A from the rat striatum and testis is eluted as an active peak centered around 250 mM NaCl.
For these reasons, this fraction was used as a solution for the evaluation of PDE10A inhibitory activity. The obtained solution was used to calculate the inhibitory activity (IC50) of a test compound in the same way as in the aforementioned test.

PDE10A, sequence (Q9Y233 whole entry): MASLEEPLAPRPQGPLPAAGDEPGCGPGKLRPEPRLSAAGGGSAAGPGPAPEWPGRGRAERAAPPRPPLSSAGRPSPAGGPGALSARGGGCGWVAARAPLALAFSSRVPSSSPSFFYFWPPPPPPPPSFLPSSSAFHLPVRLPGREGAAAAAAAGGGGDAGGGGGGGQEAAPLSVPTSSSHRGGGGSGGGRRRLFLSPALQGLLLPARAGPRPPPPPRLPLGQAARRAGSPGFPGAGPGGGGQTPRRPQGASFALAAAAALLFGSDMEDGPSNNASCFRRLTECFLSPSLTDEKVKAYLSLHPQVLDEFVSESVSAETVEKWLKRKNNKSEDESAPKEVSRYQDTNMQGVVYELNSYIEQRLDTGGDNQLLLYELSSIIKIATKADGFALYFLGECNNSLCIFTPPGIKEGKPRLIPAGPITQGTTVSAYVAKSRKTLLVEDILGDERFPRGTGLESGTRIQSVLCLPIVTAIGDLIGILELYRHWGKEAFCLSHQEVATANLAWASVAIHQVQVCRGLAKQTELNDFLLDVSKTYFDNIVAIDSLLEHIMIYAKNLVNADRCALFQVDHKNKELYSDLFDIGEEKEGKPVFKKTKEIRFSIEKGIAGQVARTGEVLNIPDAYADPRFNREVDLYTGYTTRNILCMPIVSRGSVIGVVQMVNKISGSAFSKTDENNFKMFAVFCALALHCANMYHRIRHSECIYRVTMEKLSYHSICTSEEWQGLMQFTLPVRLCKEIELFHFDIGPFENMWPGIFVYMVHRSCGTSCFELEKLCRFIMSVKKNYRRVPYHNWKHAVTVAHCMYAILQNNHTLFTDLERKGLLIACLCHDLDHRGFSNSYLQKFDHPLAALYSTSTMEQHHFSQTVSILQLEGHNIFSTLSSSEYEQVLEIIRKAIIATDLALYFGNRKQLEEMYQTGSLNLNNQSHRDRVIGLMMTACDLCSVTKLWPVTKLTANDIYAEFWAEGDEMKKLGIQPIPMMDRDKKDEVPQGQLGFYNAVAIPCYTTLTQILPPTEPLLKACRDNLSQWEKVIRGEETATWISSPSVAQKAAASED

Row | IC50 | Compound
1 | 25 nM | CCC(CC)C(=O)c1cccc2c(C)c(C(=O)Nc3cc(C(C)(C)O)c4ccccc4n3)sc12 [Example 24, 7-(2-Ethylbutanoyl)-N-(4-(2-hydroxypropan-2-yl)quinolin-2-yl)-3-methylbenzo[b]thiophene-2-carboxamide]
2 | 0.85 nM | COCc1ccc(C(C)=O)c2sc(C(=O)Nc3cc(CN4CCC(F)(F)C4)c4ccccc4n3)c(C)c12 [Example 48, 7-Acetyl-N-(4-((3,3-difluoropyrrolidin-1-yl)methyl)quinolin-2-yl)-4-(methoxymethyl)-3-methylbenzo[b]thiophene-2-carboxamide]
3 | 11 nM | CCCOCc1ccc(C(C)=O)c2sc(C(=O)Nc3cc(C(C)(C)O)c4ccccc4n3)c(C)c12 [Example 30, 7-Acetyl-N-(4-(2-hydroxypropan-2-yl)quinolin-2-yl)-3-methyl-4-(propoxymethyl)benzo[b]thiophene-2-carboxamide]
4 | 2 nM | COCc1ccc(C(C)=O)c2sc(C(=O)Nc3ccc4c(COC(F)F)cccc4n3)c(C)c12 [Example 73, 7-Acetyl-N-(5-((difluoromethoxy)methyl)quinolin-2-yl)-4-(methoxymethyl)-3-methylbenzo[b]thiophene-2-carboxamide hydrochloride]
5 | 0.91 nM | COCc1ccc(C(C)=O)c2sc(C(=O)Nc3ccc4c(C(C)=O)cccc4n3)c(C)c12 [Example 75, 7-Acetyl-N-(5-acetylquinolin-2-yl)-4-(methoxymethyl)-3-methylbenzo[b]thiophene-2-carboxamide]
6 | 0.44 nM | COCc1ccc(C(C)=O)c2sc(C(=O)Nc3cc(CN4CCC(F)CC4)c4ccccc4n3)c(C)c12 [Example 46, 7-Acetyl-N-(4-((4-fluoropiperidin-1-yl)methyl)quinolin-2-yl)-4-(methoxymethyl)-3-methylbenzo[b]thiophene-2-carboxamide]
7 | 2.6 nM | COCc1ccc(C(C)=O)c2sc(C(=O)Nc3cc(C(=O)N4CC[C@@H](O)C4)c4ccccc4n3)c(C)c12 [Example 50, (R)-7-Acetyl-N-(4-((3-hydroxypyrrolidin-1-yl)carbonyl)quinolin-2-yl)-4-(methoxymethyl)-3-methylbenzo[b]thiophene-2-carboxamide]
8 | 1.5 nM | CC(=O)c1ccc(C(C)=O)c2c(C)c(C(=O)Nc3cc(CN4CCC(O)C4)c4ccccc4n3)sc12 (centres unmarked) [Example 51, 4,7-Diacetyl-N-(4-((3-hydroxypyrrolidin-1-yl)methyl)quinolin-2-yl)-3-methylbenzo[b]thiophene-2-carboxamide]
9 | 2.1 nM | CC(=O)c1ccc(CO)c2c(C)c(C(=O)Nc3ccc4c(CO)cccc4n3)sc12 [Example 114, 7-Acetyl-4-(hydroxymethyl)-N-(5-(hydroxymethyl)quinolin-2-yl)-3-methylbenzo[b]thiophene-2-carboxamide]
10 | 6.2 nM | COCc1ccc(C(C)=O)c2sc(C(=O)Nc3cc(CN4CCCC4)c4ccccc4n3)c(C)c12 [Example 43, 7-Acetyl-4-(methoxymethyl)-3-methyl-N-(4-(pyrrolidin-1-ylmethyl)quinolin-2-yl)benzo[b]thiophene-2-carboxamide]
11 | 0.74 nM | COCc1ccc(C(C)=O)c2sc(C(=O)Nc3ccc4c(COC(=O)[C@@H](N)CO)cccc4n3)c(C)c12 [Example 91, (S)-(2-(7-Acetyl-4-(methoxymethyl)-3-methylbenzo[b]thiophene-2-carboxamido)quinolin-5-yl)methyl-2-amino-3-hydroxypropanoate]
12 | 16 nM | CC(=O)c1ccc(COC(C)C)c2c(C)c(C(=O)Nc3cc(C(C)(C)O)c4ccccc4n3)sc12 [Example 31, 7-Acetyl-N-(4-(2-hydroxypropan-2-yl)quinolin-2-yl)-4-(isopropoxymethyl)-3-methylbenzo[b]thiophene-2-carboxamide]
13 | 0.48 nM | COCc1ccc(C(C)=O)c2sc(C(=O)Nc3ccc4c(C(=O)N5CCOCC5)cccc4n3)c(C)c12 [Example 95, 7-Acetyl-4-(methoxymethyl)-3-methyl-N-(5-((morpholin-4-yl)carbonyl)quinolin-2-yl)benzo[b]thiophene-2-carboxamide]
14 | 1.2 nM | CC(=O)c1ccc(C(C)=O)c2c(C)c(C(=O)Nc3cc(CN4CC(O)C4)c4ccccc4n3)sc12 [Example 52, 4,7-Diacetyl-N-(4-((3-hydroxyazetidin-1-yl)methyl)quinolin-2-yl)-3-methylbenzo[b]thiophene-2-carboxamide]
15 | 0.89 nM | COC1CN(C(=O)c2cccc3nc(NC(=O)c4sc5c(C(C)=O)ccc(CO)c5c4C)ccc23)C1 [Example 115, 7-Acetyl-4-(hydroxymethyl)-N-(5-((3-methoxyazetidin-1-yl)carbonyl)quinolin-2-yl)-3-methylbenzo[b]thiophene-2-carboxamide]
16 | 12 nM | COCc1ccc(C(C)=O)c2sc(C(=O)Nc3ccc4c(C(=O)OC)cccc4n3)c(C)c12 [Example 92, Methyl 2-(7-acetyl-4-(methoxymethyl)-3-methylbenzo[b]thiophene-2-carboxamido)quinoline-5-carboxylate]
17 | 1.6 nM | COCc1ccc(C(C)=O)c2sc(C(=O)Nc3ccc4c(C)cccc4n3)c(C)c12 [Example 108, 7-Acetyl-4-(methoxymethyl)-3-methyl-N-(5-methylquinolin-2-yl)benzo[b]thiophene-2-carboxamide]
18 | 1.2 nM | COCc1ccc(C(C)=O)c2sc(C(=O)Nc3ccc4c(C(=O)NN5CCCC5)cccc4n3)c(C)c12 [Example 94, 2-(7-Acetyl-4-(methoxymethyl)-3-methylbenzo[b]thiophene-2-carboxamido)-N-(pyrrolidin-1-yl)quinoline-5-carboxamide]
19 | 0.89 nM | CC(=O)c1ccc(C(C)=O)c2c(C)c(C(=O)Nc3cc(CO)c4ccccc4n3)sc12 [Example 14, 4,7-Diacetyl-N-(4-(hydroxymethyl)quinolin-2-yl)-3-methylbenzo[b]thiophene-2-carboxamide]
20 | 0.94 nM | COCc1ccc(C(C)=O)c2sc(C(=O)Nc3cc(CN(C)CCO)c4ccccc4n3)c(C)c12 [Example 34, 7-Acetyl-N-(4-(((2-hydroxyethyl)(methyl)amino)methyl)quinolin-2-yl)-4-(methoxymethyl)-3-methylbenzo[b]thiophene-2-carboxamide dihydrochloride]
21 | 0.11 nM | COCc1ccc(C(C)=O)c2sc(C(=O)Nc3ccc4c(C(=O)N5CC(F)C5)cccc4n3)c(C)c12 [Example 99, 7-Acetyl-N-(5-((3-fluoroazetidin-1-yl)carbonyl)quinolin-2-yl)-4-(methoxymethyl)-3-methylbenzo[b]thiophene-2-carboxamide]
22 | 4.8 nM | CCC(=O)c1cccc2c(C)c(C(=O)Nc3cc(C(C)(C)O)c4ccccc4n3)sc12 [Example 16, N-(4-(2-Hydroxypropan-2-yl)quinolin-2-yl)-3-methyl-7-propionylbenzo[b]thiophene-2-carboxamide]
23 | 0.67 nM | Cc1c(C(=O)Nc2cc(C(C)(C)O)c3ccccc3n2)sc2c(C(=O)C3CCC3)cccc12 [Example 21, 7-(Cyclobutylcarbonyl)-N-(4-(2-hydroxypropan-2-yl)quinolin-2-yl)-3-methylbenzo[b]thiophene-2-carboxamide]
24 | 1 nM | Cc1c(C(=O)Nc2cc(C(C)(C)O)c3ccccc3n2)sc2c(C(=O)C(C)(C)C)cccc12 [Example 22, N-(4-(2-Hydroxypropan-2-yl)quinolin-2-yl)-3-methyl-7-pivaloylbenzo[b]thiophene-2-carboxamide]
25 | 0.29 nM | COCc1ccc(C(C)=O)c2sc(C(=O)Nc3cc(CN4CCC(O)C4)c4ccccc4n3)c(C)c12 (centres unmarked) [Example 35, 7-Acetyl-N-(4-((3-hydroxypyrrolidin-1-yl)methyl)quinolin-2-yl)-4-(methoxymethyl)-3-methylbenzo[b]thiophene-2-carboxamide]
26 | 1.6 nM | CCOCc1cccc2nc(NC(=O)c3sc4c(C(C)=O)ccc(COC)c4c3C)ccc12 [Example 70, 7-Acetyl-N-(5-(ethoxymethyl)quinolin-2-yl)-4-(methoxymethyl)-3-methylbenzo[b]thiophene-2-carboxamide]
27 | 0.9 nM | COCc1ccc(C(C)=O)c2sc(C(=O)Nc3cc(C(C)O)c4ccccc4n3)c(C)c12 (centres unmarked) [Example 33, 7-Acetyl-N-(4-(1-hydroxyethyl)quinolin-2-yl)-4-(methoxymethyl)-3-methylbenzo[b]thiophene-2-carboxamide hydrochloride]
28 | 7.8 nM | CC(=O)c1ccc(C(C)O)c2c(C)c(C(=O)Nc3cc(C(C)(C)O)c4ccccc4n3)sc12 (centres unmarked) [Example 9, 7-Acetyl-4-(1-hydroxyethyl)-N-(4-(2-hydroxypropan-2-yl)quinolin-2-yl)-3-methylbenzo[b]thiophene-2-carboxamide]
29 | 0.22 nM | [2H]C([2H])([2H])OC1CN(C(=O)c2cccc3nc(NC(=O)c4sc5c(C(C)=O)ccc(C([2H])([2H])OC)c5c4C)ccc23)C1 [Example 123, 7-Acetyl-N-(5-((3-(^2H3)methoxyazetidin-1-yl)carbonyl)quinolin-2-yl)-4-(methoxy(^2H2)methyl)-3-methylbenzo[b]thiophene-2-carboxamide]
